Results on 1 compound are retold here after patent publication US20250064890A1, “PROTEIN COMPOSITIONS FOR THE TREATMENT OF INFLAMMATORY DISEASES” (Unichem Laboratories Limited, priority 2021, published 2025).

The structures appear in SMILES notation.

Holding throughout (assay): Multiplex analysis, chemotherapy (5-FU), TR146
Type in all cases: cell-based, human

One assay relates to IL-12/IL-23p40. The procedure: (§1) Oral buccal mucosal cells (TR146) cells were incubated overnight at 37° C. in 5% CO2 incubator. […] The cells were then stimulated with 5-FU (10 mM) for another 24h for chemotherapy and with gamma radiation (3.5 kGy) using Cobalt 60 for radiotherapy. After 24 h, cell culture supernatants were collected from each well and stored at −20° C. till multiplex analysis. For NF-kB estimations, cell lysates were prepared. Levels of biomarkers were estimated using Magpix® multiplex machine. The cells treated with Amifostine (along with 5-FU or radiation) were considered as positive control (PC). Untreated cells (5-FU or radiation alone treated) were used as negative control (NC).
(§2) The percent modulation in each sample was determined as follows:
(§3) [{Concentration of biomarkers (pg/ml) in Control cells (5-FU or radiation alone treated)−Concentration of biomarkers (pg/ml) in SEQ ID NO: 2+5-FU or radiation treated cells)}/Concentration of biomarkers (pg/ml) in Control cells (5-FU or radiation alone treated)]*100

A further assay concerns IL-1β. On the procedure: as §1, §2, §3
For the next assay, the system named is IL-6. On the procedure: as §1, §2, §3
In the next assay the test system is MMP-3. The procedure: as §1, §2, §3
The next assay concerns TNF-α. On the procedure:
as §1, §2, §3

Another assay has as its system VEGF. The procedure: as §1, §2, §3

With `NCCCNCCSP(=O)(O)O` [Amifostine, reference compound], the “Percentage Inhibition IL-12/IL-23p40” value in the assay with IL-12/IL-23p40 (1 μg/ml + 5-FU (10 mM)) is 0%; in the assay with IL-12/IL-23p40 (10 μg/ml + 5-FU (10 mM)) it was −2.1%; in the assay with IL-12/IL-23p40 (50 μg/ml + 5-FU (10 mM)), 13.4%. The “Percentage Inhibition IL-1β” value in the assay on IL-1β (1 μg/ml + 5-FU (10 mM)) came to 14.2%; with IL-1β (10 μg/ml + 5-FU (10 mM)), 19.5%; with IL-1β (50 μg/ml + 5-FU (10 mM)) it was 46.6%. Moreover, the figures for the “Percentage Inhibition IL-6” value in the assay on IL-6 (1 μg/ml + 5-FU (10 mM)), in the assay with IL-6 (10 μg/ml + 5-FU (10 mM)) and in the assay with IL-6 (50 μg/ml + 5-FU (10 mM)) were 7.2%, 8.9% and 35.2%, respectively. Also, the “Percentage Inhibition MMP-3” value in the assay with MMP-3 (1 μg/ml + 5-FU (10 mM)) amounted to 22.6%; in the assay on MMP-3 (10 μg/ml + 5-FU (10 mM)) it was 23.4%; with MMP-3 (50 μg/ml + 5-FU (10 mM)), 26.8%. Further, the “Percentage Inhibition TNF-α” value with TNF-α (1 μg/ml + 5-FU (10 mM)) stood at 10%; with TNF-α (10 μg/ml + 5-FU (10 mM)), 13.3%; in the assay with TNF-α (50 μg/ml + 5-FU (10 mM)), 10%. The “Percentage Inhibition VGEF” value in the assay on VEGF (1 μg/ml + 5-FU (10 mM)) is given as 27.9%; in the assay with VEGF (10 μg/ml + 5-FU (10 mM)), 35.4%; in the assay on VEGF (50 μg/ml + 5-FU (10 mM)) it was 39.6%.
